Experimental data published in PubChem BioAssay AID1745844 (Carcinogenic Potency Database (CPDB), 2022).
Calls of active or inactive are those of the source. How the calls were made is not given here.

Test system: rodent lifetime carcinogenesis bioassay, tumor incidence TD50
Test: carcinogenic potency in animals, long-term in vivo studies, CPDB compilation (AID 1745844)

With C=C(Cl)Cl the TD50 (mouse, strain B6C3F1, females, by gavage, site: all sites, lesion: leukemia + lymphoma, dosed 104 weeks, study length 104 weeks) was 3.9 mg/kg/day (inactive), the TD50 (mouse, strain B6C3F1, females, by gavage, site: all sites, lesion: lymphoma, dosed 104 weeks, study length 104 weeks) was 4.02 mg/kg/day and the TD50 (mouse, strain B6C3F1, females, by gavage, site: any site (literature study), lesion: several types, types named in the paper, dosed 104 weeks, study length 104 weeks) was 2.09 mg/kg/day. For the same compound, the TD50 (mouse, strain B6C3F1, females, by gavage, site: lung, lesion: alveolar/bronchiolar adenoma + alveolar/bronchiolar carcinoma, dosed 104 weeks, study length 104 weeks) was 66.7 mg/kg/day, the TD50 (mouse, strain B6C3F1, males, by gavage, site: any site (literature study), lesion: several types, types named in the paper, dosed 104 weeks, study length 104 weeks) was 34.8 mg/kg/day (inactive) and the TD50 (mouse, strain B6C3F1, males, by gavage, site: liver, lesion: hepatocellular adenoma + hepatocellular carcinoma + neoplastic nodule, dosed 104 weeks, study length 104 weeks) was 133 mg/kg/day. For the same compound, the TD50 (mouse, strain B6C3F1, males, by gavage, site: lung, lesion: alveolar/bronchiolar adenoma + alveolar/bronchiolar carcinoma, dosed 104 weeks, study length 104 weeks) was 60.4 mg/kg/day, the carcinogen call (mouse, strain Charles River CD1, females, inhaled, site: liver, lesion: hemangiosarcoma, dosed 26 weeks, study length 78 weeks) was “negative (inactive)” and the TD50 (mouse, strain Charles River CD1, females, inhaled, site: liver, lesion: hemangiosarcoma, dosed 52 weeks, study length 52 weeks) was 170 mg/kg/day. The carcinogen call (mouse, strain Charles River CD1, females, inhaled, site: liver, lesion: hepatocellular tumor, dosed 26 weeks, study length 78 weeks) was “negative (inactive)”, the TD50 (mouse, strain Charles River CD1, females, inhaled, site: liver, lesion: hepatoma, dosed 52 weeks, study length 52 weeks) was 170 mg/kg/day and the carcinogen call (mouse, strain Charles River CD1, females, inhaled, site: lung, lesion: alveolar/bronchiolar tumor, dosed 26 weeks, study length 78 weeks) was “negative (inactive)”. For the same compound, the carcinogen call (mouse, strain Charles River CD1, males, inhaled, site: liver, lesion: hepatocellular tumor, dosed 26 weeks, study length 78 weeks) was “negative (inactive)”, the carcinogen call (mouse, strain Charles River CD1, males, inhaled, site: lung, lesion: alveolar/bronchiolar tumor, dosed 26 weeks, study length 78 weeks) was “negative (inactive)” and the TD50 (mouse, strain Swiss, females, inhaled, site: any site (literature study), lesion: malignant tumor, dosed 52 weeks, study length 126 weeks) was 86.1 mg/kg/day. The TD50 (mouse, strain Swiss, females, inhaled, site: any site (literature study), lesion: several types, types named in the paper, dosed 52 weeks, study length 126 weeks) was 30.9 mg/kg/day, the TD50 (mouse, strain Swiss, females, inhaled, site: liver, lesion: hepatoma, dosed 52 weeks, study length 126 weeks) was 858 mg/kg/day and the TD50 (mouse, strain Swiss, females, inhaled, site: lung, lesion: several types, types named in the paper, dosed 52 weeks, study length 126 weeks) was 124 mg/kg/day. It also gave a TD50 (mouse, strain Swiss, females, inhaled, site: mammary gland, lesion: several types, types named in the paper, dosed 52 weeks, study length 126 weeks) of 80.9 mg/kg/day, a TD50 (mouse, strain Swiss, males, inhaled, site: any site (literature study), lesion: malignant tumor, dosed 52 weeks, study length 126 weeks) of 50.3 mg/kg/day and a TD50 (mouse, strain Swiss, males, inhaled, site: any site (literature study), lesion: several types, types named in the paper, dosed 52 weeks, study length 126 weeks) of 17.9 mg/kg/day. It also gave a TD50 (mouse, strain Swiss, males, inhaled, site: kidney, lesion: adenocarcinoma, dosed 52 weeks, study length 126 weeks) of 22 mg/kg/day, a TD50 (mouse, strain Swiss, males, inhaled, site: liver, lesion: angiosarcoma, dosed 52 weeks, study length 126 weeks) of 566 mg/kg/day and a TD50 (mouse, strain Swiss, males, inhaled, site: lung, lesion: several types, types named in the paper, dosed 52 weeks, study length 126 weeks) of 59.9 mg/kg/day. The carcinogen call (rat, strain Charles River CD (Sprague-Dawley), females, inhaled, site: liver, lesion: several types, types named in the paper, dosed 26 weeks, study length 78 weeks) was “negative (inactive)”, the carcinogen call (rat, strain Charles River CD (Sprague-Dawley), females, inhaled, site: liver, lesion: several types, types named in the paper, dosed 43 weeks, study length 95 weeks) was “negative (inactive)” and the carcinogen call (rat, strain Charles River CD (Sprague-Dawley), males, inhaled, site: liver, lesion: several types, types named in the paper, dosed 26 weeks, study length 78 weeks) was “negative (inactive)”. For the same compound, the carcinogen call (rat, strain Charles River CD (Sprague-Dawley), males, inhaled, site: liver, lesion: several types, types named in the paper, dosed 43 weeks, study length 95 weeks) was “negative (inactive)”, the carcinogen call (rat, strain Fischer 344, females, by gavage, site: any site (literature study), lesion: several types, types named in the paper, dosed 104 weeks, study length 104 weeks) was “negative (inactive)” and the carcinogen call (rat, strain Fischer 344, males, by gavage, site: any site (literature study), lesion: several types, types named in the paper, dosed 104 weeks, study length 104 weeks) was “negative (inactive)”. The TD50 (rat, strain Sprague-Dawley Spartan, females, in drinking water, site: liver, lesion: hepatocellular carcinoma, dosed 104 weeks, study length 104 weeks) was 654 mg/kg/day (inactive), the TD50 (rat, strain Sprague-Dawley Spartan, females, in drinking water, site: liver, lesion: neoplastic nodule, dosed 104 weeks, study length 104 weeks) was 414 mg/kg/day (inactive) and the TD50 (rat, strain Sprague-Dawley Spartan, females, in drinking water, site: mammary gland, lesion: fibroadenoma, dosed 104 weeks, study length 104 weeks) was 679 mg/kg/day (inactive). For the same compound, the carcinogen call (rat, strain Sprague-Dawley Spartan, females, in drinking water, site: pituitary gland, lesion: adenoma, dosed 104 weeks, study length 104 weeks) was “negative (inactive)”, the carcinogen call (rat, strain Sprague-Dawley Spartan, females, inhaled, site: liver, lesion: cholangioma, dosed 78 weeks, study length 104 weeks) was “negative (inactive)” and the TD50 (rat, strain Sprague-Dawley Spartan, females, inhaled, site: mammary gland, lesion: adenocarcinoma, dosed 78 weeks, study length 104 weeks) was 49.8 mg/kg/day (inactive). The TD50 (rat, strain Sprague-Dawley Spartan, females, inhaled, site: mammary gland, lesion: fibroadenoma, dosed 78 weeks, study length 104 weeks) was 16 mg/kg/day (inactive), the TD50 (rat, strain Sprague-Dawley Spartan, males, in drinking water, site: liver, lesion: hepatocellular carcinoma, dosed 104 weeks, study length 104 weeks) was 22900 mg/kg/day (inactive) and the carcinogen call (rat, strain Sprague-Dawley Spartan, males, in drinking water, site: liver, lesion: neoplastic nodule, dosed 104 weeks, study length 104 weeks) was “negative (inactive)”. The carcinogen call (rat, strain Sprague-Dawley Spartan, males, inhaled, site: liver, lesion: sarcoma, dosed 78 weeks, study length 104 weeks) was “negative (inactive)”, the TD50 (rat, strain Sprague-Dawley, females, by gavage, site: liver, lesion: angiosarcoma, dosed 52 weeks, study length 136 weeks) was 0.501 mg/kg/day and the TD50 (rat, strain Sprague-Dawley, females, inhaled, site: any site (literature study), lesion: several types, types named in the paper, dosed 104 weeks, study length 150 weeks) was 119 mg/kg/day. The TD50 (rat, strain Sprague-Dawley, females, inhaled, site: liver, lesion: several types, types named in the paper, dosed 104 weeks, study length 150 weeks) was 847 mg/kg/day and the TD50 (rat, strain Sprague-Dawley, males, by gavage, site: any site (literature study), lesion: several types, types named in the paper, dosed 52 weeks, study length 136 weeks) was 5.32 mg/kg/day.
